Data on 8 compounds can be found in patent US20120058894A1, “SYNERGISTIC COMBINATIONS WHICH ARE COMPATIBLE WITH CULTIVATED PLANTS AND WHICH COMPRISE HERBICIDES SELECTED FROM THE GROUP CONSISTING OF BENZOYLCYCLOHEXANEDIONES FOR USE IN RICE CROPS” (Bayer CropScience AG, priority 2007, published 2012).

Type in all cases: in vivo
The subject of one series is ORYZA (Oryza sativa). Briefly: Post-emergence greenhouse test, damage to cultivated plant rice. Particulars: for Damage ORYZA: dosage 300 g a.i./ha. On the procedure: (§1) Seeds or root pieces of harmful mono- and dicotyledonous plants are placed in sandy clay soil in pots, covered with earth and secured in a greenhouse under good growing conditions (temperature, air humidity, water supply). Approximately three weeks after sowing, the plants are treated at the 2- to 3-leaf stage with the herbicidal active substances or the combinations according to the invention. The combinations according to the invention formulated as wettable powders or as emulsion concentrates are sprayed, in spray application, on to the green plant parts in different dosages with a water application rate of 600 to 800 I/ha (corrected). Immediately up to a few days after application, the test receptacles accumulate water over the ground surface by up to 30 mm. With the water application (submerged application), on the other hand, the ground in the closed test receptacle is already covered with the paddy water up to 30 mm at the time of the application. The formulated active substances are here added directly to the paddy water. After an exposure time of the test plants in the greenhouse of an additional 3 to 4 weeks under optimum growing conditions, the effect of the preparations is evaluated visually in comparison with untreated controls. […] In this connection, actions of the combinations according to the invention which exceed the formal sum of the actions of the herbicides when applied individually are frequently observed. The values observed for the tests show, with suitable low dosages, an action of the combinations which lie above the expected values according to Colby.
(§2) When the combinations according to the invention are used, herbicidal actions on a harmful plant species which exceed the formal sum of the actions of the herbicides present when applied singly are frequently observed. Alternatively, it can in many cases be observed that a lower application rate for the herbicidal combination is needed in order to achieve, in comparison with the individual preparations, the same action with a harmful plant species. Such improvements in action or improvements in effectiveness or economies in application rate are a strong indication of a synergistic effect. If the observed activity values already exceed the formal sum of the values for the tests with individual applications, then they likewise exceed the expected value according to Colby, which is calculated according to the following formula and is likewise regarded as an indication of synergy (cf. S. R. Colby in Weeds, 15 (1967), pp. 20 to 22):
(§3) In this connection: • A, B=action of the component A or B in percent at a dosage of a or b grams ai/ha, • E=expected value in % at a dosage of a+b grams ai/ha.
(§4) The values observed for the test examples mentioned below are greater than (harmful plants) or lower than (cultivated plants) the expected values according to Colby.

Series [1] deals with BRAPL (Brachiaria platyphylla). As to the kind of experiment: Post-emergence weed action, greenhouse pot test. On the procedure:
as §1, §2, §3, §4

Series [2] concerns SCPSS (Scirpus juncoides). As to the kind of experiment: Post-emergence weed action, greenhouse pot test. On the procedure: as §1, §2, §3, §4
Series [3] deals with LEFCH (Leptochloa chinensis). As to the kind of experiment: Post-emergence weed action, greenhouse pot test. On the procedure: as §1, §2, §3, §4
Series [4] deals with CYPES (Cyperus serotinus). As to the kind of experiment: Post-emergence weed action, greenhouse pot test. The settings on record: Table 4, post-emergence, dosage 100 g a.i./ha. On the procedure: as §1, §2, §3, §4
Series [5] deals with ECHCG (Echinochloa crus galli). As to the kind of experiment: Post-emergence weed action, greenhouse pot test. The settings on record: Table 4, post-emergence, dosage 100 g a.i./ha. On the procedure: as §1, §2, §3, §4
Where [6] appears, read: Table 2, post-emergence, dosage 12.5 g a.i./ha.
Where [7] appears, read: Table 5, post-emergence, dosage 62.5 g a.i./ha.
Setting [8] is: Table 5, post-emergence, dosage 12.5 g a.i./ha.
The mark [9] stands for this setting: Table 3, post-emergence, dosage 6.25 g a.i./ha.
[10] abbreviates: Table 6, post-emergence, dosage 6.25 g a.i./ha.

For the compound `CS(=O)(=O)c1ccc(C(=O)C2C(=O)CCCC2=O)c(Cl)c1COCC(F)(F)F` [Compound A1, tembotrione], the “Action/Damage ORYZA” value in the series with ORYZA (Oryza sativa) (in vivo) is given as 10%. The “Action/Damage BRAPL” value in series [1] (setting [6]) was found to be 20%. Further, the “Action against SCPSS” value in series [2] (Table 7, post-emergence, dosage 12.5 g a.i./ha) was 40%; in series [2] (Table 8, post-emergence, dosage 12.5 g a.i./ha), 40%; in series [2] (Table 9, post-emergence, dosage 12.5 g a.i./ha) it was 40%; in series [2] (Table 10, post-emergence, dosage 12.5 g a.i./ha), 40%.
Consider `CS(=O)(=O)c1ccc(C(=O)C2C(=O)CCCC2=O)c(Cl)c1COCC1CCCO1` (stereo not shown) [Compound A2, tefuryltrione], for which the “Action/Damage ORYZA” value in the series with ORYZA (Oryza sativa) (setting [7]) is 10%. Besides, in series [1] (setting [7]), the “Action/Damage BRAPL” value is listed as 25%. Further, the “Action against SCPSS” value in series [2] (Table 7, post-emergence, dosage 37.5 g a.i./ha) was 50%.
For the compound `CS(=O)(=O)c1ccc(C(=O)C2C(=O)CCCC2=O)c(Cl)c1` [Compound B1, sulcotrione], the “Action/Damage ORYZA” value with ORYZA (Oryza sativa) (setting [6]) and with ORYZA (Oryza sativa) (setting [8]) was 5% throughout. In addition, the “Action/Damage BRAPL” value in series [1] (setting [6]) and in series [1] (setting [8]) was 0% throughout.
On to `CCCCOC(=O)[C@@H](C)Oc1ccc(Oc2ccc(C#N)cc2F)cc1` [Compound B3, cyhalofop-butyl], for which the “Action/Damage ORYZA” value in the series with ORYZA (Oryza sativa) (setting [9]) and in the series with ORYZA (Oryza sativa) (setting [10]) was 0% in each case. In addition, the “Action/Damage LEFCH” value in series [3] (setting [10]) stood at 0%. Also, in series [1] (setting [9]), the “Action/Damage BRAPL” value is 0%.
Take `CS(=O)(=O)c1ccc(C(=O)C2=C(Sc3ccccc3)C3CCC(C3)C2=O)c(Cl)c1` (stereo not shown) [Compound B5, benzobicyclon]: the “Action against SCPSS” value in series [2] (Table 8, post-emergence, dosage 37.5 g a.i./ha) is recorded as 60%.
With `Cc1ccc(S(=O)(=O)Oc2c(C(=O)c3ccc(Cl)cc3Cl)c(C)nn2C)cc1` [Compound B6, pyrazolynate], the “Action against SCPSS” value in series [2] (Table 9, post-emergence, dosage 250 g a.i./ha) is 30%.
As for `CC(C)(NC(=O)C(Br)C(C)(C)C)c1ccccc1` (stereo not shown) [Compound B7, bromobutide], in series [2] (Table 10, post-emergence, dosage 125 g a.i./ha), the “Action against SCPSS” value was 70%.
`CCOC(=O)C1=NOC(c2ccccc2)(c2ccccc2)C1` [Compound C1, isoxadifen-ethyl]: the “Damage ORYZA” value in the series with ORYZA (Oryza sativa) (Table 11, post-emergence) amounted to 0%; with ORYZA (Oryza sativa) (Table 12, post-emergence), 0%. Further, the “Wirkung gegen LEFCH” value in series [3] (Table 4, post-emergence, dosage 100 g a.i./ha) was 0%. In series [4], the “Wirkung gegen CYPES” value came to 0%. Further, the “Wirkung gegen ECHCG” value in series [5] amounted to 0%.
